Measured values published in the CheMixHub viscosity set.
± gives the uncertainty stated by the source.

Assay: xn = mol fraction of the nth substance listed

CCCCCO + Cc1ccccc1
Conditions | viscosity [mPa·s]
293.15 K, 101.33 kPa, x1 = 0.0767 | 0.623 ± 0.008
293.15 K, 101.33 kPa, x1 = 0.155 | 0.678 ± 0.009
293.15 K, 101.33 kPa, x1 = 0.2336 | 0.747 ± 0.01
293.15 K, 101.33 kPa, x1 = 0.3074 | 0.834 ± 0.011
293.15 K, 101.33 kPa, x1 = 0.3459 | 0.888 ± 0.011
293.15 K, 101.33 kPa, x1 = 0.4529 | 1.094 ± 0.014
293.15 K, 101.33 kPa, x1 = 0.5308 | 1.29 ± 0.016
293.15 K, 101.33 kPa, x1 = 0.601 | 1.512 ± 0.018
293.15 K, 101.33 kPa, x1 = 0.6728 | 1.795 ± 0.021
293.15 K, 101.33 kPa, x1 = 0.7788 | 2.338 ± 0.027
293.15 K, 101.33 kPa, x1 = 0.8616 | 2.883 ± 0.033
293.15 K, 101.33 kPa, x1 = 0.8898 | 3.096 ± 0.035
303.15 K, 101 kPa, x1 = 0.0999 | 0.564 ± 0.02
303.15 K, 101 kPa, x1 = 0.1999 | 0.6272 ± 0.022
303.15 K, 101 kPa, x1 = 0.3 | 0.7213 ± 0.025
303.15 K, 101 kPa, x1 = 0.4 | 0.8366 ± 0.028
303.15 K, 101 kPa, x1 = 0.4999 | 0.9954 ± 0.033
303.15 K, 101 kPa, x1 = 0.6001 | 1.221 ± 0.039
303.15 K, 101 kPa, x1 = 0.6999 | 1.475 ± 0.047
303.15 K, 101 kPa, x1 = 0.8001 | 1.822 ± 0.057
303.15 K, 101 kPa, x1 = 0.9001 | 2.289 ± 0.071
303.15 K, 101.33 kPa, x2 = 0.0745 | 2.508 ± 0.044
303.15 K, 101.33 kPa, x2 = 0.2114 | 1.81 ± 0.032
303.15 K, 101.33 kPa, x2 = 0.4291 | 1.101 ± 0.019
303.15 K, 101.33 kPa, x2 = 0.5202 | 0.925 ± 0.016
303.15 K, 101.33 kPa, x2 = 0.609 | 0.787 ± 0.014
303.15 K, 101.33 kPa, x2 = 0.7058 | 0.678 ± 0.012
303.15 K, 101.33 kPa, x2 = 0.8063 | 0.592 ± 0.011
303.15 K, 101.33 kPa, x2 = 0.8629 | 0.564 ± 0.01
303.15 K, 101.33 kPa, x2 = 0.9443 | 0.536 ± 0.01
308.15 K, 101 kPa, x1 = 0.0999 | 0.5329 ± 0.019
308.15 K, 101 kPa, x1 = 0.1999 | 0.5883 ± 0.021
308.15 K, 101 kPa, x1 = 0.3 | 0.6717 ± 0.023
308.15 K, 101 kPa, x1 = 0.4 | 0.7723 ± 0.026
308.15 K, 101 kPa, x1 = 0.4999 | 0.9102 ± 0.03
308.15 K, 101 kPa, x1 = 0.6001 | 1.106 ± 0.036
308.15 K, 101 kPa, x1 = 0.6999 | 1.324 ± 0.042
308.15 K, 101 kPa, x1 = 0.8001 | 1.617 ± 0.051
308.15 K, 101 kPa, x1 = 0.9001 | 2.077 ± 0.065
308.15 K, 101.33 kPa, x2 = 0.0745 | 2.202 ± 0.039
308.15 K, 101.33 kPa, x2 = 0.2114 | 1.611 ± 0.028
308.15 K, 101.33 kPa, x2 = 0.4291 | 1.001 ± 0.018
308.15 K, 101.33 kPa, x2 = 0.5202 | 0.846 ± 0.015
308.15 K, 101.33 kPa, x2 = 0.609 | 0.726 ± 0.013
308.15 K, 101.33 kPa, x2 = 0.7058 | 0.63 ± 0.012
308.15 K, 101.33 kPa, x2 = 0.8063 | 0.554 ± 0.01
308.15 K, 101.33 kPa, x2 = 0.8629 | 0.53 ± 0.01
308.15 K, 101.33 kPa, x2 = 0.9443 | 0.507 ± 0.007
313.15 K, 101 kPa, x1 = 0.0999 | 0.4988 ± 0.018
313.15 K, 101 kPa, x1 = 0.1999 | 0.5518 ± 0.02
313.15 K, 101 kPa, x1 = 0.3 | 0.6271 ± 0.022
313.15 K, 101 kPa, x1 = 0.4 | 0.7149 ± 0.025
313.15 K, 101 kPa, x1 = 0.4999 | 0.8351 ± 0.028
313.15 K, 101 kPa, x1 = 0.6001 | 1.004 ± 0.033
313.15 K, 101 kPa, x1 = 0.6999 | 1.192 ± 0.038
313.15 K, 101 kPa, x1 = 0.8001 | 1.442 ± 0.046
313.15 K, 101 kPa, x1 = 0.9001 | 1.838 ± 0.058
313.15 K, 101.33 kPa, x2 = 0.0745 | 1.94 ± 0.035
313.15 K, 101.33 kPa, x2 = 0.2114 | 1.439 ± 0.026
313.15 K, 101.33 kPa, x2 = 0.4291 | 0.911 ± 0.016
313.15 K, 101.33 kPa, x2 = 0.5202 | 0.778 ± 0.014
313.15 K, 101.33 kPa, x2 = 0.609 | 0.67 ± 0.012
313.15 K, 101.33 kPa, x2 = 0.7058 | 0.587 ± 0.011
313.15 K, 101.33 kPa, x2 = 0.8063 | 0.52 ± 0.01
313.15 K, 101.33 kPa, x2 = 0.8629 | 0.5 ± 0.007
313.15 K, 101.33 kPa, x2 = 0.9443 | 0.484 ± 0.007
318.15 K, 101 kPa, x1 = 0.0999 | 0.4725 ± 0.017
318.15 K, 101 kPa, x1 = 0.1999 | 0.5195 ± 0.019
318.15 K, 101 kPa, x1 = 0.3 | 0.5876 ± 0.021
318.15 K, 101 kPa, x1 = 0.4 | 0.6645 ± 0.023
318.15 K, 101 kPa, x1 = 0.4999 | 0.7703 ± 0.026
318.15 K, 101 kPa, x1 = 0.6001 | 0.9178 ± 0.03
318.15 K, 101 kPa, x1 = 0.6999 | 1.08 ± 0.035
318.15 K, 101 kPa, x1 = 0.8001 | 1.296 ± 0.042
318.15 K, 101 kPa, x1 = 0.9001 | 1.63 ± 0.052
323.15 K, 101 kPa, x1 = 0.0999 | 0.4511 ± 0.017
323.15 K, 101 kPa, x1 = 0.1999 | 0.4907 ± 0.018
323.15 K, 101 kPa, x1 = 0.3 | 0.5523 ± 0.02
323.15 K, 101 kPa, x1 = 0.4 | 0.6202 ± 0.022
323.15 K, 101 kPa, x1 = 0.4999 | 0.7139 ± 0.025
323.15 K, 101 kPa, x1 = 0.6001 | 0.8422 ± 0.028
323.15 K, 101 kPa, x1 = 0.6999 | 0.982 ± 0.032
323.15 K, 101 kPa, x1 = 0.8001 | 1.169 ± 0.038
323.15 K, 101 kPa, x1 = 0.9001 | 1.459 ± 0.047
